Data published in PubChem BioAssay (NCI).
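Five compound concentrations were applied to cells in 96-well plates for 48 hours; endpoints were derived by simple linear interpolation of the resulting dose-response curve. GI50 is the concentration that inhibits growth by half. Definition used: TGI = concentration required for complete inhibition of growth.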

How the values were obtained:
Assay in all cases: inhibition of tumour cell growth, NCI panel, 48 h
[1] = system: SN12C renal
[2] = system: UACC-62 melanoma
[3] = system: A549 NSCLC
[4] = system: CCRF-CEM leukemia
[5] = system: U251 CNS
[6] = system: SK-MEL-2 melanoma
[7] = system: NCI-H226 lung
[8] = system: A498 renal
[9] = system: SNB-19 CNS
[10] = system: BT-549 breast

For COc1ccc(OC2OC(CO)C(OCc3ccccc3)C(OCc3ccccc3)C2OCc2ccccc2)cc1 (stereo not drawn), the TGI [1] was greater than 100 µM, the TGI [2] was greater than 100 µM and the TGI [3] was greater than 100 µM. It also gave a TGI [4] greater than 100 µM, a TGI [5] greater than 100 µM and a TGI [6] greater than 100 µM. The TGI [7] was greater than 100 µM, the TGI [8] was greater than 100 µM and the TGI [9] was greater than 100 µM. It also gave a TGI [10] greater than 100 µM.

COc1ccc(Nc2nc(N)c(C(=O)c3c[nH]c4ccccc34)s2)cc1 was tested, and the TGI [1] was greater than 100 µM, the TGI [2] was greater than 100 µM and the TGI [3] was greater than 61.3 µM. The TGI [4] was 6.02 µM, the TGI [5] was greater than 100 µM and the TGI [6] was greater than 72.5 µM. For the same compound, the TGI [7] was 36.3 µM, the TGI [8] was 16.3 µM and the TGI [9] was greater than 100 µM. It also gave a TGI [10] greater than 40.5 µM.

In the case of O=S(=O)(c1cc(Cl)ccc1Cl)n1ccnc1, the TGI [1] is reported as 84.4 µM, the TGI [2] is reported as greater than 100 µM and the TGI [3] is reported as greater than 100 µM. For the same compound, the TGI [4] was greater than 100 µM, the TGI [5] was greater than 100 µM and the TGI [6] was greater than 100 µM. It also gave a TGI [7] of 52.8 µM, a TGI [8] of 95 µM and a TGI [9] greater than 100 µM. For the same compound, the TGI [10] was greater than 100 µM.

CN(C)CCCNC(=O)c1cc(NC(=O)c2cc(NC(=O)CCCn3c4ccccc4c4ccccc43)cn2C)cn1C gave a TGI [1] of 33.2 µM, a GI50 [2] of 7.28 µM and a TGI [2] of 23 µM. It also gave a TGI [3] greater than 67.7 µM, a TGI [4] greater than 100 µM and a TGI [5] greater than 62.2 µM. For the same compound, the TGI [6] was greater than 79.9 µM, the GI50 [7] was 9.26 µM and the TGI [7] was 39 µM. The TGI [8] was 44.3 µM, the TGI [9] was 28.3 µM and the TGI [10] was 46.7 µM.

Compound COC(=O)Cc1ccc2c(cnn2-c2ccccc2)c1OC has a TGI [1] greater than 10 µM, a TGI [2] greater than 10 µM and a TGI [3] greater than 10 µM. It also gave a TGI [4] greater than 10 µM, a TGI [5] greater than 10 µM and a TGI [6] greater than 10 µM. For the same compound, the TGI [7] was greater than 10 µM, the TGI [8] was greater than 10 µM and the TGI [9] was greater than 10 µM. The TGI [10] was greater than 10 µM.

For Cc1cc2c(O)c(c1)CN(CC(=O)O)Cc1cc(C)cc(c1O)CN(CC(=O)O)Cc1cc(C)cc(c1O)CN(CC(=O)O)C2, the TGI [1] was greater than 100 µM, the TGI [2] was greater than 100 µM and the TGI [3] was greater than 100 µM. For the same compound, the TGI [4] was greater than 100 µM, the TGI [5] was greater than 100 µM and the TGI [6] was greater than 100 µM. For the same compound, the TGI [7] was greater than 100 µM, the TGI [8] was greater than 100 µM and the TGI [9] was greater than 100 µM. The TGI [10] was greater than 100 µM.

With C=C(C)OCOCCOC the TGI [1] was greater than 100 µM, the TGI [2] was greater than 100 µM and the TGI [3] was greater than 100 µM. For the same compound, the TGI [4] was greater than 100 µM, the TGI [5] was greater than 100 µM and the TGI [6] was greater than 100 µM. It also gave a TGI [7] greater than 100 µM, a TGI [8] greater than 100 µM and a TGI [9] greater than 100 µM. For the same compound, the TGI [10] was greater than 100 µM.

Compound CCC(O)(Cc1ccc(OC)cc1)c1ccc(OC)cc1 (stereo not drawn) has a TGI [1] greater than 100 µM, a TGI [2] greater than 100 µM and a TGI [3] greater than 100 µM. For the same compound, the TGI [4] was greater than 100 µM, the TGI [5] was greater than 100 µM and the TGI [6] was greater than 100 µM. It also gave a TGI [7] greater than 100 µM, a TGI [8] greater than 100 µM and a TGI [9] greater than 100 µM. The TGI [10] was greater than 100 µM.

O=C1C=CC(=O)c2c(O)c(N3CCC[C@H]3CO)c(Cl)c(O)c21 was tested, and the TGI [1] was 3.2 µM, the TGI [2] was 4.88 µM and the TGI [3] was greater than 10 µM. The TGI [4] was 0.757 µM, the TGI [5] was greater than 10 µM and the TGI [6] was 5.53 µM. For the same compound, the TGI [7] was greater than 10 µM, the TGI [8] was greater than 10 µM and the TGI [9] was greater than 10 µM. The TGI [10] was greater than 10 µM.

Work on c1ccc2c(c1)Sc1nccc3ccnc-2c13 yielded a TGI [1] greater than 100 µM, a TGI [2] greater than 100 µM and a TGI [4] greater than 100 µM. For the same compound, the TGI [5] was greater than 100 µM, the TGI [6] was greater than 100 µM and the TGI [7] was greater than 100 µM. The TGI [8] was greater than 100 µM, the TGI [9] was greater than 100 µM and the TGI [10] was greater than 100 µM.

For C[C@]12CCC(=O)[C@@H](CCC3=CC(=O)C=CC3=O)[C@@H]1CCC2=O, the TGI [1] was greater than 100 µM, the TGI [2] was 44.1 µM and the TGI [3] was greater than 54.5 µM. It also gave a TGI [4] greater than 100 µM, a TGI [5] greater than 47.3 µM and a TGI [6] of 27.1 µM. The TGI [7] was 57.3 µM, the TGI [8] was 39.6 µM and the TGI [9] was greater than 100 µM. It also gave a TGI [10] of 30.2 µM.

Compound OCCOCn1nncc1Cn1ncc2c(SCc3ccccc3)ncnc21 has a TGI [1] greater than 100 µM, a TGI [2] greater than 100 µM and a TGI [3] greater than 100 µM. For the same compound, the TGI [5] was greater than 100 µM, the TGI [6] was greater than 100 µM and the TGI [7] was greater than 100 µM. It also gave a TGI [8] greater than 100 µM, a TGI [9] greater than 100 µM and a TGI [10] greater than 100 µM.

Compound N#C/C(C(=O)Nc1ccc(Cl)cc1)=C(/N)N1CCCC1 has a TGI [1] greater than 100 µM, a TGI [2] greater than 100 µM and a TGI [3] greater than 100 µM. It also gave a TGI [4] greater than 100 µM, a TGI [5] greater than 100 µM and a TGI [6] greater than 100 µM. For the same compound, the TGI [7] was greater than 100 µM, the TGI [8] was greater than 100 µM and the TGI [9] was greater than 100 µM. For the same compound, the TGI [10] was greater than 100 µM.

NC(=O)c1csc(C2(O)COC(CO)C2O)n1 (stereo not drawn) showed a TGI [1] greater than 100 µM, a TGI [2] greater than 100 µM and a TGI [3] greater than 100 µM. The TGI [4] was greater than 100 µM, the TGI [5] was greater than 100 µM and the TGI [6] was greater than 100 µM. It also gave a TGI [7] greater than 100 µM, a TGI [8] greater than 100 µM and a TGI [9] greater than 100 µM. For the same compound, the TGI [10] was greater than 100 µM.

c1cncc(CC2(c3cc4ccccc4[nH]3)OCCO2)c1 showed a TGI [1] greater than 100 µM, a TGI [2] greater than 100 µM and a TGI [3] greater than 100 µM. It also gave a TGI [4] greater than 100 µM, a TGI [5] greater than 100 µM and a TGI [6] greater than 100 µM. It also gave a TGI [7] greater than 100 µM, a TGI [8] greater than 100 µM and a TGI [9] greater than 100 µM. For the same compound, the TGI [10] was greater than 100 µM.

N#CC1(O)CCCCCCCCCCC1 was tested, and the TGI [1] was greater than 100 µM, the TGI [2] was greater than 100 µM and the TGI [3] was greater than 100 µM. The TGI [4] was greater than 100 µM, the TGI [5] was greater than 100 µM and the TGI [6] was greater than 100 µM. It also gave a TGI [7] greater than 100 µM, a TGI [8] greater than 100 µM and a TGI [9] greater than 100 µM. For the same compound, the TGI [10] was greater than 100 µM.

O=c1c(Cc2ccc(Cl)cc2)nnc2sc(-c3ccc(-c4ccc(F)c(Cl)c4)o3)nn12 was tested, and the TGI [1] was greater than 100 µM, the TGI [2] was greater than 100 µM and the TGI [3] was greater than 100 µM. For the same compound, the TGI [4] was greater than 100 µM, the TGI [5] was greater than 100 µM and the TGI [6] was greater than 100 µM. For the same compound, the TGI [7] was greater than 100 µM, the TGI [8] was greater than 100 µM and the TGI [9] was greater than 100 µM. For the same compound, the TGI [10] was greater than 100 µM.

Cc1ccc(C(=O)N/N=C(\N=Nc2ccccc2)c2ccc(N(C)C)cc2)cc1 showed a TGI [1] greater than 100 µM, a TGI [2] greater than 100 µM and a TGI [3] greater than 100 µM. The TGI [4] was greater than 100 µM, the TGI [5] was greater than 100 µM and the TGI [6] was greater than 100 µM. For the same compound, the TGI [7] was greater than 100 µM, the TGI [9] was greater than 100 µM and the TGI [10] was greater than 100 µM.

COC(=O)C1CCc2sc3ncnc(Nc4cn[nH]c4C(=O)Nc4ccc(CN5CCN(C)CC5)cc4)c3c21 (stereo not drawn) showed a GI50 [1] of 0.345 µM, a TGI [1] greater than 100 µM and a GI50 [2] of 1.36 µM. It also gave a TGI [2] of 6.59 µM, a GI50 [4] of 0.29 µM and a TGI [4] of 2.98 µM. It also gave a GI50 [6] of 0.692 µM, a TGI [6] of 3.48 µM and a GI50 [7] of 0.588 µM. The TGI [7] was greater than 100 µM, the GI50 [8] was 0.218 µM and the TGI [8] was 1.8 µM. It also gave a GI50 [9] of 0.712 µM, a TGI [9] greater than 100 µM and a GI50 [10] of 0.899 µM. The TGI [10] was 6.02 µM.

CN(C)CC1CCC/C(=C\c2ccc(OC(=O)c3ccc(Cl)cc3)cc2)C1=O (stereo not drawn) gave a TGI [1] of 4.84 µM, a TGI [2] of 13.4 µM and a TGI [3] of 7.26 µM. The TGI [5] was 3.08 µM, the TGI [6] was 10.6 µM and the TGI [7] was 9.77 µM. For the same compound, the TGI [8] was 22.6 µM, the TGI [9] was 13.7 µM and the TGI [10] was 7.55 µM.

With COc1ccccc1C1Nn2c(nc3ccccc3c2=O)N1c1ccc(C)cc1 (stereo not drawn) the TGI [1] was 21.7 µM, the TGI [2] was 22.2 µM and the TGI [3] was 19.7 µM. It also gave a TGI [4] of 24.7 µM, a TGI [5] of 6.68 µM and a TGI [6] of 25.3 µM. The TGI [7] was 9.94 µM, the TGI [9] was 21.2 µM and the TGI [10] was 68.6 µM.
